# Assay results reported in patent US20240189244A1 (priority 2021, published 2024).
# Where a name gives a salt, the structure may show the parent alone.
# Legend:
# [1] = system: renal proximal tubule cells (RPTCs); assay type: cell-based, New Zealand white rabbits; settings: for effect of inhibitor pretreatment on DEDC(NP) uptake by RPTCs: then 0.1 mg/mL DEDC(NP)s 2 h
# Experimental: To assess uptake of DEDC(NP)s, RPTCs were grown in 35-mm tissue culture dishes as described above. DEDC(NP) dispersions were prepared by diluting nanoparticles into media and vortexed immediately prior to experiments. Cells were preincubated for 30 min with varying concentrations of either media or the drugs chlorpromazine hydrochloride (Sigma-Aldrich), nocodazole (Sigma-Aldrich), or simvastatin (Sigma-Aldrich). After pre-incubation, DEDC(NP)s were added at a final concentration of 0.1 mg/mL and incubated for 2 h at 37° C. Cells were washed in triplicate with media to ensure removal of nanoparticles adhered to the outer cell membrane. Cells were then fixed in 10% neutral buffered formalin and nuclei stained with 4′,6-diamidino-2-phenylindole (DAPI). Cells were imaged using the EVOS M5000 Imaging System (ThermoFisher, Waltham, MA) and fluorescence intensity was analyzed by ImageJ (NIH) (n=5 biological replicates).
# [2] = system: BTBR WT and ob/ob mice; test: Diabetic mice: cardiovascular fibrosis, heart weight and survival
# Experimental: The efficacy of nanoparticle therapy was determined using BTBR wild type and obese diabetic mice (BTBR T^+ Itpr3^tf/J (WT) and BTBR.Cg-Lep^ob/WiscJ (ob/ob)) (The Jackson Laboratory, Bar Harbor, ME). […] Mice in the vehicle saline groups, Veh(Sal), received daily intraperitoneal injections of normal saline. Immediately following study initiation, 8 mice from both WT and ob/ob Veh(Sal) were euthanized and kidneys extracted for histological analysis. Remaining mice (n=8 per group) were treated for 8 weeks. Following the final week of treatment, mice were sacrificed and kidneys were perfused with normal saline with heparin (10 U/mL). Serum, kidneys and heart were collected for protein and histological analysis.
# Cardiovascular fibrosis was measured by quantification of the fraction of trichrome-positive area in both interstitial and perivascular sections of the right ventricular wall. At least 15 sections were quantified per animal. All quantification was completed by an analyst blinded to treatment group.
# [3] = system: I/R injured mice; test: I/R AKI: cardiovascular function by tail cuff; settings: 1-2 hours following administration
# Experimental: (§1) Mice were subjected to bilateral renal ischemia for 18-20 minutes or sham surgery as previously described (Funk J A, Schnellmann R G. Persistent disruption of mitochondrial homeostasis after acute kidney injury. Am J Physiol Renal Physiol 2012; 302: F853-864). Mice were allowed to recover without intervention for 24 hours and sorted into groups based on 24-hour serum creatinine levels prior to initiation of dosing. Mice were dosed either daily or at a reduced frequency at 24 hours and 96 hours post-injury (2-day dosing). […] Mice were given VS and FFD via intraperitoneal injection.
# Mouse blood pressure and heart rates were measured with a non-invasive tail cuff device (CODA8, Kent Scientific, CT) as previously described (Wang Y, Thatcher S E, Cassis L A. Measuring Blood Pressure Using a Noninvasive Tail Cuff Method in Mice. Methods Mol Biol 2017; 1614: 69-73). All measurements were performed on restrained, conscious animals located on a heating pad following the manufacturer's protocol. […] At least 10 valid measurements were taken per animal.
# [4] = system: renal proximal tubule cells (RPTCs); test: Cell viability by resazurin reduction assay; settings: formoterol 1-1000 nM, 24 hours
# Experimental: The RPTCs were cultured on 35-mm tissue culture dishes with 1:1 DMEM:F-12 (without glucose, phenol red, or sodium pyruvate) as media supplemented with 15 mM HEPES buffer, 2.5 mM L-glutamine, 1 μM pyridoxine HCL, 15 mM sodium bicarbonate, and 6 mM lactate. Daily, hydrocortisone (50 nM), selenium (5 ng/mL), human transferrin (5 μg/mL), bovine insulin (10 nM), and L-ascorbic acid-2-phosphate (50 μM) were added to fresh culture medium. Confluent cells were used for all experiments.
# Cultured RPTCs were grown on 96-well plates at a cell density of 5×10^3 cells/well for 96 h. […] The treatments were each prepared by dissolving or suspending the powders in culture media. […] Viability was assessed (n=6 technical replicates per biological replicate) by resazurin reduction assay as described previously (41). Detection was assessed using Synergy H1 Multi-Mode Reader (BioTek Instruments, Inc., Winooski, VT) with 544 nm excitation and 590 nm emission wavelengths. The relative viability of the cells was calculated as follows: […]
# Detection was measured using Synergy H1 Multi-Mode Reader (BioTek Instruments, Inc., Winooski, VT) with 544 nm excitation and 590 nm emission wavelengths. Five biological replicates were used and viability of the cells was calculated as follows:
# [5] = system: C57BL/6 mice; test: Tail cuff heart rate and blood pressure, naive mice; settings: 1-2 hours after 0.3 mg/kg formoterol
# Experimental: (§2) Male C57BL/6 mice were obtained from Charles River (Oakwood, MI) and housed in a room at a constant temperature of 22+2° C. with 12:12 hour light-dark cycles. […] At 24 hours post exposure, mice were euthanized and kidney and heart were harvested. All experiments were approved by The University of Arizona in accordance with the guidelines set forth by the National Institutes of Health Guide for the Care and Use of Laboratory Animals.
# The blood pressure and heart rates were measured with a non-invasive tail cuff device (CODA8, Kent Scientific, CT) which uses a volume-pressure method as previously described (Wang Y, Thatcher S E, Cassis L A. Measuring Blood Pressure Using a Noninvasive Tail Cuff Method in Mice. Methods Mol Biol. 2017; 1614:69-73). All measurements were performed on restrained, conscious animals located on a heating pad following the manufacturers protocol. […] At least 10 valid measurements were taken per animal.
# [6] = system: renal proximal tubule cells (RPTCs); settings: up to a concentration of 1000 nM, previous studies; cited from earlier work
# [7] = system: PGC-1α, ND1, NDUFS1 in left ventricle; test: Immunoblot of mitochondrial biogenesis markers in left ventricle of naive mice; settings: 24 hours; formoterol 0.3 mg/kg or nanoparticles 0.04 mg/kg formoterol i.v.; vs control
# Experimental: as §2
# [8] = system: Wistar rats; settings: cited from earlier work
# [9] = system: NDUFB8, SDHB, UQCRC2, ATP5A in renal cortex; test: Nanoparticle dose selection: renal cortical ETC proteins after 1 week of dosing; settings: BTBR WT mice
# Experimental: The FFD(NP) dosage and frequency was determined using BTBR wild type mice (BTBR T^+ Itpr3^tf/J) (The Jackson Laboratory, Bar Harbor, ME). […] The Veh(Sal) group was given intraperitoneal injections of normal saline daily. The Veh(NP) group was given 60 mg/kg nanoparticles injected via lateral tail vein 2× per week. […] After eight days, mice were weighed, euthanized and kidneys were extracted and snap-frozen in liquid nitrogen.
# Protein was extracted from renal cortical tissue using radioimmunoprecipitation assay (RIPA) buffer (50 mM Tris-HCl, 150 mM NaCl, 0.1% SDS, 0.5% sodium deoxycholate and 1% Triton X-100, pH 7.4) with protease inhibitor cocktail (1:100), 1 mM sodium fluoride, and 1 mM sodium orthovanadate (Sigma Aldrich). Equal protein quantities (10 μg) were loaded onto 4-15% SDS-PAGE gels, resolved by gel electrophoresis, and then transferred onto nitrocellulose membranes. Membranes were blocked in 5% milk in tris-buffered saline/tween 20, incubated at a temperature of 4° C. for 18-24 h with primary and secondary antibodies (Abcam). Bound antibodies were visualized using enhanced chemiluminescence (Thermo Scientific, Waltham, MA) and the GE ImageQuant LAS400 Biomolecular Imaging System (GE Healthcare, Marlborough, MA).
# [10] = physchem; settings: for solubility at 24 h: 25 °C, thermodynamic from solid
# Experimental: For variable pH samples, solution pH was adjusted with either hydrochloric acid or sodium hydroxide solutions (1 M Sigma-Aldrich, St. Louis, MO). Vials were rotated gently for 24 hours at 25° C. as previously described (Aodah A, Pavlik A, Karlage K, Myrdal P B. Preformulation Studies on Piperlongumine. PLOS One. 2016; 11(3):e0151707). Test solutions were filtered using 0.45 μm PVDF or PTFE membrane filters (MilliporeSigma, Burlington, MA) for aqueous and organic solvents respectively.
# [11] = system: KIM-1, PGC-1α, ETC proteins, tight junction proteins in renal cortex; test: I/R AKI: renal cortex proteins by immunoblot and KIM-1 immunohistochemistry; assay type: in vivo, C57Bl/6 mice; settings: 144 hours, daily treatment
# Experimental: as §1
# [12] = ventricular wall, 8 weeks of treatment
smiles,measurement,setting,value
"CCN1C(=CC=CC=Cc2sc3ccccc3[n+]2CC)Sc2ccccc21.[I-] [DEDC, 3,3′-diethylthiadicarbocyanine iodide]",intracellular fluorescence in RPTCs (uptake),"[1]; 0.1 mg/mL DEDC(NP)s or equivalent free dye, 2 h",minimal
"CN(C)CCCN1c2ccccc2Sc2ccc(Cl)cc21 [chlorpromazine, chlorpromazine hydrochloride]",effect of inhibitor pretreatment on DEDC(NP) uptake by RPTCs,[1]; 30 min preincubation,no observable decline in uptake
"COc1ccc(CC(C)NCC(O)c2ccc(O)c(NC=O)c2)cc1 (centres unmarked) [formoterol, Formoterol fumarate dihydrate]",focal myocardial fibrosis / collagen accumulation,[2]; 8 weeks of treatment,significant focal
same,probability of survival to 12 weeks of age,[2]; BTBR WT mice,38%
same,heart weight normalized to respective Veh(Sal) controls,[2]; BTBR WT or BTBR ob/ob,1.3 fold
same,probability of surviving to 12 weeks of age,[2]; BTBR ob/ob mice,13%
same,diffuse interstitial trichrome positive area elevation,[2]; [12],1.6 fold
same,perivascular trichrome positive area elevation,[2]; [12],3.7 fold
same,decrease in mean arterial pressure (MAP),[3],18%
same,heart rate increase from VS,[3],1.5 fold
same,viability of proximal tubule cells,[4],not significantly decreased
same,decrease in diastolic blood pressure,[5],19 mmHg
same,decrease in mean arterial pressure (MAP),[5],16 mmHg
same,heart rate elevation above the vehicle group,[5],198 bpm
same,heart rate increase vs vehicle,[5],65%
same,toxicity to RPTCs,[6],non-toxic
same,protein expression of mitochondrial biogenesis markers in left ventricle,[7],Elevated protein expression was significant
same,increase in heart rate from baseline,[8]; immediately following systemic dosing,100-150 bpm
same,mean arterial pressure (MAP),"[8]; intravenous administration, similar doses",significant decrease in mean arterial pressure
same,lowest dose at which heart rate effect was seen,"[8]; rat, in vivo",3 µg/kg
same,persistence of heart rate increase,"[8]; rat, in vivo",up to 4 hours
same,weight gain,[9],no differences in weight gain amongst groups
same,solubility at 24 h,"[10]; organic solvent or mixture, Formoterol Solubility, ACN",5 ± 1 µg/mL
same,solubility at 24 h,"[10]; organic solvent or mixture, Formoterol Solubility, Acetone",63 ± 4 µg/mL
same,solubility at 24 h,"[10]; organic solvent or mixture, Formoterol Solubility, Chloroform",2 ± 1 µg/mL
same,solubility at 24 h,"[10]; organic solvent or mixture, Formoterol Solubility, DCM",1 ± 0.4 µg/mL
same,solubility at 24 h,"[10]; water, water solubility",1160 ± 20 µg/mL
same,Formoterol Solubility,"[10]; Acetone, fumarate dihydrate",51 ± 4 µg/mL
same,solubility in non-ionic surfactant solutions,"[10]; PVA and Pluronic F127, 0.1% to 5% in aqueous solution",remains unchanged
same,solubility in water:alcohol mixtures,[10]; ethanol and methanol volume fraction,increased with increasing volume fraction
same,solubility in water at various pH,[10]; pH adjusted with HCl or NaOH,increasing solubility in highly basic or acidic conditions
same,claudin-5 expression,[11],50 % of sham
COC(=O)Nc1nc2ccc(C(=O)c3cccs3)cc2[nH]1 [nocodazole],effect of inhibitor pretreatment on DEDC(NP) uptake by RPTCs,[1]; 30 min preincubation,no observable decline in uptake
CCC(C)(C)C(=O)O[C@H]1C[C@@H](C)C=C2C=C[C@H](C)[C@H](CC[C@@H]3C[C@@H](O)CC(=O)O3)[C@H]21 [simvastatin],inhibitor concentration at which decrease in nanoparticle uptake starts,[1]; 30 min preincubation,1 µM
same,inhibitor concentration giving complete reduction in intracellular fluorescence intensity,[1]; 30 min preincubation,100 µM
